Measured values: patent US20190276798A1, “METHOD FOR PREPARING COLLAGEN HAVING REGENERATION AND REPAIR EFFECTS FROM WHARTON'S JELLY MESENCHYMAL STEM CELLS” (P.E. ASIA BIOMEDICINE CO., LTD., priority 2018, published 2019)

Experiments:
type III collagen = assay: Collagen 3 expression in WJMSC cells, Western blotting; type: cell-based, human; conditions: for expression of pro-collagen 3: FIG. 3(B), ImageJ fold change vs control, normalized to β-actin
Method: (§1) Wharton's Jelly mesenchymal stein cells (WJMSC cells: BCRC H-WJ001) were cultured in α-MEM medium supplemented with 10% to 20% of fetal bovine serum (FBS) and 2 to 8 ng/mL of human basic fibroblast growth factor (bFGF). In the present invention, the WJMSC cells are incubated in α-MEM medium supplemented with 10% FBS and 4 ng/mL bFGF. In addition, the WJMSC cells are incubated in an incubator with a temperature of 37° C. and 5% carbon dioxide (CO2).
(§2) The WJMSC cells were seeded onto culture dishes at a cell density of 5×10^4 cells/cm^2, and incubated in a first medium of 10% FBS α-MEM medium supplemented with and 4 ng/mL bFGF for 24 hours. After 24 hours, the first medium was removed and the WJMSC cells were washed by 1× phosphate-buffered saline (PBS) for two to three times. The WJMSC cells were then incubated in a second medium for 48 hours. The second medium contains α-MEM medium supplemented with bFGF (ProSpece cat: cyt-218-b), proline (Calbiochem, cat: #5370), arginine (Merck, cat: #1011542) or L-ascorbic acid (Sigma, cat: SI-A8960) as experimental design. After 48 hours, the cells were collected for protein extraction, and expression of type I collagen (abbreviated to “collagen 1”) and type III collagen (abbreviated to “collagen 3”) was examined.
(§3) The cell medium was removed and the cells were washed by 1× PBS for two times. The cells were treated with 10 mM EDTA (ethylenediaminetetraacetic acid)-PBS solution or 0.5 M acetic acid and scraped down at 4° C. to obtain a first mixture. The first mixture was placed into a centrifuge tube for lysing cells by a sonication process. The sonication process comprises sonication at […] for 15 seconds by an ultrasonicator for three times, and the time interval between each sonication is 30 seconds. After the sonication process, the first mixture was centrifuged at 4° C. at a speed of 2000 rpm for 30 minutes to obtain a protein crud extract.
(§4) In addition, a cell lysis buffer can be used for cell protein extraction. The extraction method comprises the steps of removing cell medium, washing the cells by 1× PBS twice, adding RIPA cell lysis buffer containing 10 mM EDTA into the cells and shaking for at least 30 minutes, scraping down the cells to obtain a cells-lysis buffer mixture, placing the cells-lysis buffer mixture into a centrifuge tube, and centrifuging at 4° C. at a speed of 12000 rpm for at least 15 minutes to obtain a protein crud extract.
(§5) The protein crud extract was then mixed with 25% saturated […] solution, or mixed with 3M sodium chloride (NaCl) solution for reaction at 4° C. for 24 hours to perform a salting-out process. After 24 hours, the mixed solution was centrifuged at 4° C. at a speed of 3500 g for 30 minutes, and a supernatant was removed to preserve a sediment. The sediment was washed by 1× PBS, and centrifuged at 4° C. at a speed of 3500 g for 30 minutes. The sediment was preserved and dissolved by 0.5 M acetic acid solution to obtain a protein extract. The protein extract was then analyzed by Western blotting assay to detect expression of collagen. All the experiments were repeated at least twice and the results with representative are disclosed.
(§6) FIG. 3(A) is a diagram showing effects of L-ascorbic acid and proline on collagen expression in WJMSC cells. In FIG. 3(A), “AA(5)” represents that WJMSC cells were treated with 5 μM L-ascorbic acid, “Pro(2)” represents that WJMSC cells were treated with 2 mM proline, and “bFGF(4)” represents that the WJMSC cells were treated with 4 ng/mL bFGF. In addition, pro-collagen 1, collagen 1, pro-collage 3 and collagen 3 are marked by arrow signs in FIG. 3(A). […] Referring to FIG. 3(B), the results in FIG. 3(A) are quantified by ImageJ software, the quantification method comprises steps of acquiring a density value of a band of a target in Western blotting and normalizing the density value with a density value of β-actin of the same sample to obtain a normalization value. […]

type I collagen = assay: Collagen 1 expression in WJMSC cells, Western blotting; type: cell-based, human; conditions: for expression of pro-collagen 1: FIG. 3(B), ImageJ fold change vs control, normalized to β-actin
Method: as §1, §2, §3, §4, §5, §6

[1] = test system: Human foreskin fibroblasts (HS68); assay: Wound healing of HS68 cells on collagen-coated culture dish; type: cell-based; conditions: for Wound size (%): dish coated with 50 μg/mL collagen; for Wound healing percentage (%): relative to wound size at 2 hours
Method: Human foreskin fibroblasts (HS68) were seed and attached onto a culture dish at a density of 2×10^4 cells/cm^2 and were incubated in 10% FBS DMEM medium for 24 hours. In control group, an ordinary culture dish without any treatment was used. In collagen group, a collagen-coated culture dish used is prepared by dropping appropriate amount of collagen extracted from WJMSC cells at a concentration of 50 μg/mL on a surface of the culture dish, spreading the collagen evenly, and placing the culture dish into a 37° C. incubator overnight to obtain the collagen-coated culture dish. After the HS68 cells were cultured for 24 hours, the culture medium of HS68 cells was removed and the cells were washed by 1× PBS. A wound was generated on the attached cells, and the wound was observed and photographed at 0, 2, 4, 6, and 20 hours after wound generation by a microscopy. The photographs were analyzed by ImageJ software. The region has no cell on it is considered as a wound size, and a wound healing percentage is calculated by the following formula:
Wound healing percentage (%)=[(wound size at observed time point−wound size at 2 hours after wound generation)/wound size at 2 hours after wound generation]×100%.

[2] = WJMSC cells treated with 5 μM L-ascorbic acid
[3] = WJMSC cells treated with 0.2 mM proline
[4] = WJMSC cells treated with 2 mM proline, vs control
[5] = WJMSC cells treated with 5 mM to 20 mM proline, same enhancement as with 2 mM
[6] = WJMSC cells treated with 0.2 mM to 20 mM of arginine (FIG. 1)
[7] = WJMSC cells treated with arginine alone, 0.2 mM (FIG. 2)
[8] = WJMSC cells treated with 4 ng/mL bFGF

Q: Which “expression of pro-collagen 3” value (type III collagen; 5 μM L-ascorbic acid) does the source give for O=C1O[C@H]([C@@H](O)CO)C(O)=C1O [L-ascorbic acid] here?
A: enhanced

Q: And the “expression of collagen 3” value (type III collagen; [2])?
A: enhanced

Q: What about the “expression of pro-collagen 1” value (type I collagen; 5 μM L-ascorbic acid) of the same molecule?
A: enhanced

Q: What about the “expression of collagen 1” value (type I collagen; [2]) of the same molecule?
A: enhanced

Q: What does the source list for O=C(O)[C@@H]1CCCN1 [proline]?
A: expression of pro-collagen 3 (type III collagen; 2 mM proline): enhanced; expression of collagen 3 (type III collagen; [3]): enhanced; expression of collagen 3 (type III collagen; [4]): enhanced; expression of collagen 3 (type III collagen; [5]): not achieved; expression of pro-collagen 1 (type I collagen; 2 mM proline): enhanced; expression of collagen 1 (type I collagen; [3]): enhanced; expression of collagen 1 (type I collagen; [4]): enhanced; expression of collagen 1 (type I collagen; [5]): not achieved

Q: What does the source list for Collagen?
A: Wound size (%) ([1]; 2 hr after wound generation): 15.2%; Wound healing percentage (%) ([1]; 4 hr after wound generation): 13.0%; Wound size (%) ([1]; 4 hr after wound generation): 13.3%; Wound healing percentage (%) ([1]; 6 hr after wound generation): 38.0%; Wound healing percentage (%) ([1]; 6 hr after wound generation, listed as collagen): 38%; Wound size (%) ([1]; 6 hr after wound generation): 9.4%; Wound healing percentage (%) ([1]; 20 hr after wound generation): 100.0%; Wound healing percentage (%) ([1]; 20 hr after wound generation, listed as collagen): 100%; Wound size (%) ([1]; 20 hr after wound generation): 0.0%; cell density ([1]; 20 hr, 10× objective lens, vs control group (FIG. 6)): higher; cells observed on the wound region ([1]; after 4 hours and 6 hours of wound generation, microscopy, vs control group (FIG. 6)): more significant; wound region covered by cells ([1]; after 20 hours of wound generation, microscopy (FIG. 6)): all covered by cells; wound healing percentage, collagen group compared with control group ([1]; over the observed time points): better

Q: Which results are given for N=C(N)NCCC[C@H](N)C(=O)O [arginine]?
A: expression of collagen 3 (type III collagen; [6]): not is enhanced; expression of collagen 3 (type III collagen; [7]): not enhanced; expression of collagen 1 (type I collagen; [6]): not is enhanced; expression of collagen 1 (type I collagen; [7]): not enhanced

Q: With “bFGF: human basic fibroblast growth factor (bFGF)” as the molecule, how does the “expression of pro-collagen 3” value (type III collagen; 4 ng/mL bFGF) read?
A: enhanced

Q: What about the “expression of collagen 3” value (type III collagen; [8]) of the same molecule?
A: enhanced

Q: What about the “expression of pro-collagen 1” value (type I collagen; 4 ng/mL bFGF) of the same molecule?
A: enhanced

Q: And the “expression of collagen 1” value (type I collagen; [8])?
A: enhanced
